{
  "source": "patent US20120149678A1",
  "about": "“Organonitro Compounds for Use in Treating Non-Hodgkin's Lymphoma and Leukemia, and Methods Relating Thereto” (priority 2010, published 2012)",
  "test_system": "B-cell lymphoma Daudi cells",
  "test": "ABDNAZ-induced apoptosis of B-cell lymphoma Daudi cells (sub-G1 cells, propidium iodide staining, flow cytometry)",
  "type": "cell-based",
  "procedure": "B-cell lymphoma Daudi cells were grown and maintained in Dulbecco's modified essential medium (DMEM) (INVITROGEN™, Grand Island, N.Y.) supplemented with 10% fetal calf serum, 100 units/mL penicillin, and 100 μg/mL streptomycin in a 37° C. humidified incubator with a mixture of 95% air and 5% CO2. Experiments were performed on exponentially growing cells with a cell population doubling time of approximately 20-36 hours.\nAfter exposing the B-cell lymphoma Daudi cells to ABDNAZ, apoptotic cell death was quantitated by measuring the number of subdiploid (sub-G1) cells stained with propidium iodide (PI), according to a procedure described previously by Ning and coworkers. Ning, S., and Knox, S. J. in Int. J. Radiat. Oncol. Biol. Phys. (2004) 60:197-203. Briefly, ABDNAZ-treated and untreated control cells were collected and fixed with cold 100% ethanol. Cells were pelleted, treated with 100 μg/mL of RNase A in PBS-EDTA solution for 30 min and stained with 50 μg/mL of PI for 10 min at room temperature. The DNA content was analyzed with a FACScan flowcytometer (Becton Dickison, San Jose, Calif.). The percentage of cells in the sub-G1 phase was calculated as described previously by Ning and coworkers.\nTo examine whether ABDNAZ-induced apoptotic cell death was due to the generation of reactive oxygen species (ROS), Daudi cells were treated with a glutathione (GSH) precursor, N-acetylcysteine (NAC), and a GSH synthesis inhibitor, buthionine-(S,R)-sulfoxime (BSO), and the level of apoptosis was measured.",
  "data": [
    {"smiles": "O=C(CBr)N1CC([N+](=O)[O-])([N+](=O)[O-])C1", "note": "[ABDNAZ, 1-bromoacetyl-3,3-dinitroazetidine]", "values": [
      {"measurement": "Daudi cell apoptosis", "setting": "2 mM ABDNAZ, measured at 24 hours (FIG. 1)", "result": 30, "unit": "%"},
      {"measurement": "Daudi cell apoptosis", "setting": "4 mM ABDNAZ, measured at 72 hours after exposure (FIG. 1)", "result": 45, "unit": "%"},
      {"measurement": "ABDNAZ-induced apoptosis", "setting": "Daudi cells pre-treated with N-acetylcysteine (GSH precursor) (FIG. 2)", "result": 5, "unit": "%"},
      {"measurement": "ABDNAZ-induced apoptosis", "setting": "Daudi cells pre-treated with buthionine-(S,R)-sulfoxime (GSH synthesis inhibitor) (FIG. 2)", "result": 25, "unit": "%"},
      {"measurement": "ABDNAZ-induced apoptosis", "setting": "Daudi cells, ABDNAZ without pre-treatment (FIG. 2)", "result": 11, "unit": "%"}
    ]}
  ]
}
